Like-named read-outs stand apart in the source and are kept apart here.
Columns and labels:
[1] = tested on: MDA-MB-231 breast cancer cell; test: MTT cell viability assay, MDA-MB-231 breast cancer cell; assay type: cell-based, human; conditions: for IC50: Homo sapiens; for times more potent than curcumin (IC50): MDA-MB-231, 72 h treatment, curcumin IC50 16.23 μM
Procedure: Cell viability was evaluated by measuring the reduction in MTT to yield blue formazan. Cells were cultured in 96-well plates, allowed to attach overnight, and then treated with compounds. After treatment, MTT solution (1 mg/ml) was added to each well, and plates were incubated for another 4 h.

[2] = tested on: HCT-116 colon cancer cell; test: MTT cell viability assay, HCT-116 colon cancer cell; assay type: cell-based; conditions: Homo sapiens
Procedure: (§1) Cell viability was evaluated by measuring the reduction in MTT to yield blue formazan. Cells were cultured in 96-well plates, allowed to attach overnight, and then treated with compounds. After treatment, MTT solution (1 mg/ml) was added to each well, and plates were incubated for another 4 h. Medium were removed, blue formazan was dissolved in DMSO, and the absorbance was read at 570 nm^20.

[3] = tested on: PC3 prostate cancer cell; test: MTT cell viability assay, PC3 prostate cancer cell; assay type: cell-based
Procedure: as §1

[4] = MDA-MB-231, 24 h, MDA-MB-231, treated 24 hours, read-out: IC50 24 hours
[5] = MDA-MB-231, 48 h, MDA-MB-231, treated 48 hours, read-out: IC50 48 hours
[6] = MDA-MB-231, 72 h, MDA-MB-231, treated 72 hours, read-out: IC50 72 hours
[7] = HCT-116, treated 24 hours, read-out: IC50 24 hours
[8] = HCT-116, treated 48 hours, read-out: IC50 48 hours
[9] = HCT-116, treated 72 hours, read-out: IC50 72 hours
[10] = PC-3, treated 24 hours, read-out: IC50 24 hours
[11] = PC-3, treated 48 hours, read-out: IC50 48 hours
[12] = PC-3, treated 72 hours, read-out: IC50 72 hours

Structure (SMILES)	IC50 [1, 4]	IC50 [1, 5]	IC50 [1, 6]	IC50 [2, 7]	IC50 [2, 8]	IC50 [2, 9]	IC50 [3, 10]	IC50 [3, 11]	IC50 [3, 12]	melting point	times more potent than curcumin (IC50) [1]
COc1cc(/C=C/C(O)=C/C(=O)/C=C/c2ccc(OC(=O)C(C)(CO)CO)c(OC)c2)ccc1O [Compound 21b, 4-((1E,4Z,6E)-5-Hydroxy-7-(4-hydroxy-3-methoxyphenyl)-3-oxohepta-1,4,6-trien-1-yl)-2 methoxyphenyl 3-hydroxy-2-(hydroxymethyl)-2-methylpropanoate]	13.2 ± 1.2 µM	9.97 ± 1.12 µM	5.94 µM	35.6 ± 2.5 µM	20.4 ± 0.61 µM	15.5 ± 0.16 µM	24.6 ± 0.83 µM	26.8 ± 0.74 µM	17.4 ± 1.37 µM	104 to 105 °C	
CCC(CO)(CO)C(=O)Oc1ccc(/C=C/C(=O)/C=C(O)/C=C/c2ccc(O)c(OC)c2)cc1OC [Compound 22b, 4-((1E,4Z,6E)-5-Hydroxy-7-(4-hydroxy-3-methoxyphenyl)-3-oxohepta-1,4,6-trien-1-yl)-2-methoxyphenyl 2,2-bis(hydroxymethyl)butanoate]	14.6 ± 2.42 µM	7.55 ± 0.86 µM	4.66 µM	21.2 ± 2.48 µM	12.4 ± 0.16 µM	11.4 ± 1.05 µM	13.8 ± 1.48 µM	14.4 ± 0.82 µM	12.5 ± 0.1 µM	82 to 83 °C	
CC(CO)(CO)C(=O)Oc1ccc(/C=C/C(=O)/C=C(O)/C=C/c2ccc(OC(=O)C(C)(CO)CO)cc2)cc1 [Compound 23a, ((1E,3Z,6E)-3-Hydroxy-5-oxohepta-1,3,6-triene-1,7-diyl)bis(4,1-phenylene) bis(3-hydroxy-2-(hydroxymethyl)-2-methylpropanoate)]	26.7 ± 1.85 µM	7.82 ± 0.56 µM	6.74 µM	57.4 ± 12.2 µM	8.64 ± 0.18 µM	4.1 ± 0.06 µM	8.46 ± 0.64 µM	8.77 ± 0.8 µM	5.59 ± 0.2 µM	192 to 194 °C	
CC(CO)(CO)C(=O)Oc1ccc(/C=C/C(=O)/C=C(O)/C=C/c2ccc(O)cc2)cc1 [Compound 23b, 4-((1E,4Z,6E)-5-hydroxy-7-(4-hydroxyphenyl)-3-oxohept-1,4,6-trien-1-yl)phenyl 3-hydroxy-2-(hydroxymethyl)-2-methylpropanoate]	19.5 ± 1.82 µM	5.27 ± 0.57 µM	1.33 µM	71.9 ± 7.87 µM	11.3 ± 0.72 µM	4.78 ± 0.66 µM	20.1 ± 2.62 µM	11 ± 0.44 µM	5.22 ± 0.27 µM	206 to 208 °C	about 12 times
COc1ccc(/C=C/C(=O)CC(=O)/C=C/c2ccc(OC)c(OC(=O)C(C)(CO)CO)c2)cc1OC(=O)C(C)(CO)CO [Compound 24a, ((1E,6E)-3,5-Dioxohepta-1,6-diene-1,7-diyl)bis(2-methoxy-5,1-phenylene) bis(3-hydroxy-2-(hydroxymethyl)-2-methylpropanoate)]	9.22 ± 2.24 µM	5.11 ± 0.96 µM	4.61 µM	11.4 ± 1.11 µM	5.33 ± 0.29 µM	2.79 ± 0.15 µM	11.9 ± 1.4 µM	6.43 ± 0.26 µM	4.74 ± 0.04 µM	194 to 196 °C	about 3.5 times
COc1ccc(/C=C/C(=O)CC(=O)/C=C/c2ccc(OC)c(OC(=O)C(C)(CO)CO)c2)cc1O [Compound 24b, 5-((1E,6E)-7-(3-Hydroxy-4-methoxyphenyl)-3,5-dioxohepta-1,6-dien-1-yl)-2-methoxyphenyl 3-hydroxy-2-(hydroxymethyl)-2-methylpropanoate]	7.69 ± 0.82 µM	1.99 ± 0.99 µM	2.29 µM	7.57 ± 1.02 µM	3.84 ± 0.41 µM	1.95 ± 0.15 µM	8.37 ± 0.81 µM	3.75 ± 0.18 µM	2.32 ± 0.05 µM	184 to 186 °C	
CCOc1cc(/C=C/C(=O)/C=C(O)/C=C/c2ccc(OC(=O)C(C)(CO)CO)c(OCC)c2)ccc1OC(=O)C(C)(CO)CO [Compound 26, ((1E,3Z,6E)-3-hydroxy-5-oxohepta-1,3,6-triene-1,7-diyl)bis(2-ethoxy-4,1-phenylene) bis(3-hydroxy-2-(hydroxymethyl)-2-methylpropanoate)]	18.43 ± 0.15 µM	8.85 ± 0.66 µM	6.58 ± 0.81 µM	8.33 ± 0.39 µM	4.22 ± 0.05 µM	3.79 ± 0.1 µM	9.38 ± 0.01 µM	9.53 ± 0.36 µM	5.36 ± 0.07 µM	153 to 155 °C	
CCOc1cc(/C=C/C(=O)/C=C(O)/C=C/c2ccc(OC(=O)C(CC)(CO)CO)c(OCC)c2)ccc1OC(=O)C(CC)(CO)CO [Compound 27, ((1E,3Z,6E)-3-hydroxy-5-oxohepta-1,3,6-triene-1,7-diyl)bis(2-ethoxy-4,1-phenylene) bis(2,2-bis(hydroxymethyl)butanoate)]	8.04 ± 0.17 µM	7.43 ± 1.36 µM	5.49 ± 0.52 µM	3.79 ± 0.03 µM	3.18 ± 0.26 µM	2.97 ± 0.13 µM	8.18 ± 1.89 µM	4.46 ± 0.15 µM	3.06 ± 0.29 µM	161 to 162 °C	
COc1ccc(/C=C/C(O)=C/C(=O)/C=C/c2ccc(OC(=O)C(C)(CO)CO)c(OC)c2)cc1OC [Compound 33, 4-((1E,4Z,6E)-7-(3,4-dimethoxyphenyl)-5-hydroxy-3-oxohepta-1,4,6-triene-1-yl)-2-methoxyphenyl 3-hydroxy-2-(hydroxymethyl)-2-methylpropanoate]	4.69 ± 0.73 µM	3.12 ± 0.17 µM	2.55 µM	10.5 ± 0.64 µM	7.56 ± 0.77 µM	4.77 ± 0.24 µM	7.77 ± 0.88 µM	7.85 ± 0.81 µM	7.64 ± 0.75 µM	99 to 101 °C	
COc1cc(/C=C/C(=O)C(COC(C)=O)(COC(C)=O)C(=O)/C=C/c2ccc(OC(=O)C(C)(CO)CO)c(OC)c2)ccc1OC(=O)C(C)(CO)CO [Compound 41, ((1E,6E)-4,4-bis(acetoxymethyl)-3,5-dioxohepta-1,6-diene-1,7-diyl)bis(2-methoxy-4,1-phenylene) bis(3-hydroxy-2-(hydroxymethyl)-2-methylpropanoate)]	57.6 ± 1.59 µM		3.69 ± 0.02 µM	9.52 ± 0.06 µM		5.4 ± 0.02 µM	65.2 ± 1.43 µM	47.4 ± 2.65 µM	32.8 ± 2.7 µM		
COc1ccc(/C=C/C(=O)C(CO)(CO)C(=O)/C=C/c2ccc(OC)c(OC)c2)cc1OC [Compound 42, (1E,6E)-1,7-bis(3,4-dimethoxyphenyl)-4,4-bis(hydroxymethyl)hepta-1,6-diene-3,5-dione]	> 100 µM		9.02 ± 1.13 µM	89.65 ± 0.49 µM	8 ± 0.6 µM	7.18 ± 0.68 µM	77.2 ± 2.34 µM	61.2 ± 2.3 µM	26.1 ± 0.81 µM		
COc1ccc(/C=C/C(=O)C(COC(=O)C(C)(CO)CO)(COC(=O)C(C)(CO)CO)C(=O)/C=C/c2ccc(OC)c(OC)c2)cc1OC [Compound 43, 2,2-bis((E)-3-(3,4-dimethoxyphenyl)acryloyl)propane-1,3-diylbis(3-hydroxy-2-(hydroxymethyl)-2-methylpropanoate)]	83 ± 0.17 µM		17.3 ± 0.1 µM	64.7 ± 1.56 µM		25.1 ± 0.5 µM	67.7 ± 1.76 µM	52.2 ± 1.23 µM	51.3 ± 0.39 µM		
COc1ccc(/C=C/C(=O)C(COC(C)=O)(COC(C)=O)C(=O)/C=C/c2ccc(OC)c(OC)c2)cc1OC [Compound 44, 2,2-bis((E)-3-(3,4-dimethoxyphenyl)acryloyl)propane-1,3-diyl diacetate]	7.21 ± 0.18 µM	0.9 ± 0.03 µM	0.61 ± 0.1 µM	6.33 ± 1.01 µM	3.66 ± 0.25 µM	1.51 ± 0.55 µM	3.68 ± 0.11 µM	3.07 ± 0.37 µM	0.85 ± 0.07 µM		
